Patent publication US20230339919A1, “BENZO OXYGEN-CONTAINING HETEROCYCLIC COMPOUNDS AND MEDICAL APPLICATION THEREOF” (AB PHARMA LTD., priority 2020, published 2023)
Read-outs that look alike come from different tables or passages of the source.

Experiments:
[1] = biological target: BSEP bile salt transporter (Homo sapiens, UniProt O95342); experiment: BSEP (Bile Salt Export Pump) assay, taurocholic acid uptake by BSEP vesicles, LC/MS/MS; assay type: in vitro ADME
Description: In this experiment, we performed a preliminary study on the inhibition of the uptake of the substrate taurocholic acid (TCA) by the BSEP bile salt transporter by LC/MS/MS. The BSEP protein microvesicles with reverse uptake ability were obtained by transfecting Hi5 cells with the BSEP gene, which is capable of TCA uptake and uptake of taurocholic acid. The principle of this experiment is to perform substrate uptake by BSEP protein microcapsules in the presence of energy ATP, the substrate TCA and the candidate compound to be tested, after a certain transit time, the energy, substrate and candidate compound were completely washed out of the microvesicle, and the absorbed substrate TCA was released by lysis of the microvesicle. […] The starting concentration of the sample was 100 mM, diluted in 2-fold gradient with Bravo apparatus, with 11 concentration gradients; the lowest point concentration was 97.65 μM. • 3. Control compound (Glyburide) starting at 20 mM, diluted in 2-fold gradient with Bravo instrument, with 11 concentration gradients; the lowest point concentration was 19.53 μM. • 4. 300 nl of compound was transferred to the middle plate using the ECHO autosampler. • 5. Positive control (HPE) wells and negative control (ZPE) wells were also transferred 300 nl DMSO each. […] Add 14.7 μl of ATP buffer to the corresponding wells of the compound and ZPE, respectively. • 2. Add 14.7 μl of AMP buffer to the corresponding wells of the HPE. • 3. Shake the plate at 25 degrees C. for 10 minutes. • 4. […] Immediately add 5 ul of 0.5M EDTA solution to all wells, and then add 65 μl of Buffer B. All reactions are completed. • 6. Transfer […] of liquid from the end of reaction compound plate to the filter plate using the spiking apparatus. • 7. After placing the liquid receiving plate under the filter plate, use a centrifuge to remove the liquid and discard the liquid received in the receiving plate. • 8. Add 90 μl of buffer B to the filter plate and repeat step 7. Repeat steps 7 and 8 to wash the filter plate a total of three times. • 9. Let the filter plate dry overnight. • 10. Add 81 μl of 80% methanol/water solution to the filter plate the next day. • 11. Apply membrane to the filter plate and vibrate the plate for 15 minutes. • 12. Place a new liquid receiver plate under the filter plate and centrifuge for 5 min to filter all the liquid from the filter plate into the receiver plate. • 13. Add 13.5 μl of internal standard solution to each well of the liquid receiver plate and seal the plate with a sealing film. • 14. Using LC/MS/MS, detect the content of taurocholic acid in the receiver plate.

[2] = cited from earlier work
GPR40 = biological target: T1, GPR40 (Homo sapiens, UniProt O14842); experiment: GPR40 agonist activity, FLIPR calcium assay in CHO-K1/GPR40 cells; assay type: cell-based
T1 construct: expressed in transfected cells; host or cells: CHO-K1
T1 sequence (O14842 whole entry): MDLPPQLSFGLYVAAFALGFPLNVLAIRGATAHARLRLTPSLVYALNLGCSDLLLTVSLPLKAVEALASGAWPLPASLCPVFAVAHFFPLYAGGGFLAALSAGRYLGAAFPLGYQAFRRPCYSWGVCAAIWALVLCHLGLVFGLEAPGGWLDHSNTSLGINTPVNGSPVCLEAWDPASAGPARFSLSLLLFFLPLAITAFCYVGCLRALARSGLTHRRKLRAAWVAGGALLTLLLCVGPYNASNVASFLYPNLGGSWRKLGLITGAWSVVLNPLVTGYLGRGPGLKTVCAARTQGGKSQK
Description: Inoculate CHO-K1/GPR40 cells in 384-well plates at a density of 10,000 cells/well. Cells were incubated at 37° C. for 24 hours in a 5% CO2 incubator. After the experiment, discard the cell culture medium, quickly add […] of 1× FLIPR® Calcium 6 dye containing 2.5 mM/Probenecid to each well and incubate at 37° C. for 2 hours protected from light. For the determination, different concentrations of drug ([…]) were added to the wells and the fluorescence values were read. The fluorescence excitation wavelength was 494 nm and emission wavelength was 516 nm. FLIPR instrument data, EC50 was derived from the formula Y=Bottom+(Top−Bottom)/(1+(EC50/X)^HillSlope).

hERG = hERG (Homo sapiens, UniProt Q12809); experiment: hERG assay
hERG, sequence (Q12809 whole entry): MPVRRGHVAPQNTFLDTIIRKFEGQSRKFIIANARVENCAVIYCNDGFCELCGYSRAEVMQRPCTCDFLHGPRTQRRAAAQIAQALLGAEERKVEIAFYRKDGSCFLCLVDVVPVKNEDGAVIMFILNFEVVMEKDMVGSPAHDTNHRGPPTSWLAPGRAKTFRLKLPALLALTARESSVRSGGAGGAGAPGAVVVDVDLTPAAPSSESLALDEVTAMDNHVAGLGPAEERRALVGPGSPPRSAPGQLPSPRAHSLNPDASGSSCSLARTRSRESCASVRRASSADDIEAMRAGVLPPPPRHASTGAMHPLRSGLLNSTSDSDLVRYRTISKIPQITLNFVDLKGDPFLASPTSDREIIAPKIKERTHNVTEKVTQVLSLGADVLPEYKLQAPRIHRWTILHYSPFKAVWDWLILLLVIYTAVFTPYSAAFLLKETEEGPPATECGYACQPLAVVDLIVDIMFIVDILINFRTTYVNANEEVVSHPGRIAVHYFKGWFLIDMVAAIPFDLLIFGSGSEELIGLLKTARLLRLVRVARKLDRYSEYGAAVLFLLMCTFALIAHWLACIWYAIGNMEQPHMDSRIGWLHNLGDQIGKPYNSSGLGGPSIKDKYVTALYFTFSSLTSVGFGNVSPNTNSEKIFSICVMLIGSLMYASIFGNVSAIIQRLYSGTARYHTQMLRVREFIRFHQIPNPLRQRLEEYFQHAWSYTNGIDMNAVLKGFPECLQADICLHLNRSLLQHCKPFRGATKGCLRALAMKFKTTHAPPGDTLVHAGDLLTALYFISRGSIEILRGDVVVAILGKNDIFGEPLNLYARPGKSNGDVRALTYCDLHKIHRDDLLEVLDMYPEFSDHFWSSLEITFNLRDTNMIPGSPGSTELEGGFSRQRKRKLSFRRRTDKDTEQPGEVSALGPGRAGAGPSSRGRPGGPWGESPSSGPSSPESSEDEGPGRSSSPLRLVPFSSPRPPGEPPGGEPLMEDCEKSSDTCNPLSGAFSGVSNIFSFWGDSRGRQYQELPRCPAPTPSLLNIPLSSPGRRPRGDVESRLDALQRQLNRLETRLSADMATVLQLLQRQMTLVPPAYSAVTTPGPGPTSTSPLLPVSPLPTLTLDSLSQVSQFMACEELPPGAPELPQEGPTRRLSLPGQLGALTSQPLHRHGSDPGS

healthy mice = experiment: Acute Toxicity Study (MTD) by gavage in healthy mice; assay type: in vivo; details: mouse, in vivo, 600 mg/kg, 5 days
[3] = as above; assay type: in vivo; details: mouse, in vivo, po, 600 mg/kg
[4] = inhibition of TCA uptake by BSEP vesicles, read-out: Potential inhibitory side effects BSEP (IC50)
[5] = GPR40 agonist activity range (EC50), CHO-K1/GPR40 cells, read-out: GPR40 activity
[6] = Table 4, read-out: GPR40 Activity (hEC50)
[7] = read-out: GPR40 activity (EC50)

BSEP bile salt transporter, sequence (O95342 whole entry): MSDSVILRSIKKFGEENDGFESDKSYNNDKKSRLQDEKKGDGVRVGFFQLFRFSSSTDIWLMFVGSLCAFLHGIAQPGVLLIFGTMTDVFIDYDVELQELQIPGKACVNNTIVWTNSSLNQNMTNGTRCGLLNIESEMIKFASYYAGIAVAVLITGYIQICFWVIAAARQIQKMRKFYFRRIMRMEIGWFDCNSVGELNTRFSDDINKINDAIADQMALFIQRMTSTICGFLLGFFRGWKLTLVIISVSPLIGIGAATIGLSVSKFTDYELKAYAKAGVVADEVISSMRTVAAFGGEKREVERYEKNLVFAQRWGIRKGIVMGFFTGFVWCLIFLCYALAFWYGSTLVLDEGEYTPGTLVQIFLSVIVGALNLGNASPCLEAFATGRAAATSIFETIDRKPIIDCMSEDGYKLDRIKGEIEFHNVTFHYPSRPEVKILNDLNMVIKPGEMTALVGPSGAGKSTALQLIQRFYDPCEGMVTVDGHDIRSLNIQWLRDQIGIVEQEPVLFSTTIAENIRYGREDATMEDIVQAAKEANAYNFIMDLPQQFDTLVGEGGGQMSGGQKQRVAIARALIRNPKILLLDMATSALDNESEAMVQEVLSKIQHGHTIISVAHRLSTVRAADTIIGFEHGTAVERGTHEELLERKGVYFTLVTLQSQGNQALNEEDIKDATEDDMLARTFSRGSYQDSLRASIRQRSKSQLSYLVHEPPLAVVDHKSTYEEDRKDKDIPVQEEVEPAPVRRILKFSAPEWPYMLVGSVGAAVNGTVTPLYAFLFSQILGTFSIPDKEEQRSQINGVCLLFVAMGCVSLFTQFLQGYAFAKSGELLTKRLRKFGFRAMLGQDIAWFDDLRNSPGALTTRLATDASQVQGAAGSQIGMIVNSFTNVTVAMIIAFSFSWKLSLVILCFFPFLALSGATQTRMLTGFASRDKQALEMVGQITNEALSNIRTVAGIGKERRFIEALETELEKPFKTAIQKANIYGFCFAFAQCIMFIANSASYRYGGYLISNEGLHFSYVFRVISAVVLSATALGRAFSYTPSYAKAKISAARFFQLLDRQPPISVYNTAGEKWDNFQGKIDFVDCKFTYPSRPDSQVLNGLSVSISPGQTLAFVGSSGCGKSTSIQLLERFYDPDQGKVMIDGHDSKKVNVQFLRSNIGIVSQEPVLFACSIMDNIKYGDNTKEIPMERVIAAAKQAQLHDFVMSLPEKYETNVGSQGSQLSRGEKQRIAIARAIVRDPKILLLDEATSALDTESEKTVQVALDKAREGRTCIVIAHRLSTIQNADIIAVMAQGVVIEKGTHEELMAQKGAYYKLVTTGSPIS

Compound | IC50 [1, 4] | risk of causing hypoglycaemia ([2]; 50 mg once daily, versus control sulphonylureas) | hepatotoxicity ([2]; clinical studies terminated in 2013) | effect on insulin secretion ([2]; when blood glucose levels are normal) | EC50 (GPR40; [5]) | EC50 (GPR40; [6]) | EC50 (GPR40; [7]) | IC50 (hERG) | IC50 ([1]; read-out: BSEP) | survival rate of the mice after administration (healthy mice) | LD50 at 5 days [3] | Ames assay result (Ames assay)
Cc1cc(OCCCS(C)(=O)=O)cc(C)c1-c1cccc(COc2ccc3c(c2)OC[C@H]3CC(=O)O)c1 [Ref-1] | 7.1 µM | significantly lower than that of the control sulphonylureas | problems with hepatotoxicity | no effect | – | – | – | – | – | – | – | –
O=C(O)C[C@@H]1COc2cc(OCc3cccc4c3OC(F)(F)O4)ccc21 [IIb-18] | 162 µM | – | – | – | < 0.01 µM | 0.0079 µM | < 0.01 µM | > 30 µM | > 25 µM | 100% | > 600 mg/kg | no relevant side effects
O=C(O)C[C@@H]1COc2cc(OCc3cc(Cl)cc4c3OCO4)ccc21 [IIb-25] | 57.7 µM | – | – | – | < 0.01 µM | 0.0092 µM | < 0.01 µM | > 30 µM | > 25 µM | 100% | > 600 mg/kg | no relevant side effects
